Assay results published in US20200179285A1, “BIODEGRADABLE MICROPARTICLES FOR SUSTAINED DELIVERY OF ANTI-ANGIOGENIC PEPTIDE” (The Johns Hopkins University, priority 2017, published 2020).

Tested on: VEGF-induced vascular leakage
Test: VEGF-induced vascular leakage in rabbit eyes
Assay type: in vivo
Conditions: single injection, day 60, FIG. 4G

aflibercept
activity against VEGF-induced vascular leakage: no longer showed activity
